Measured values as given in PubChem BioAssay AID1996.
≈ marks a conversion by molar mass, not a printed value.

Conditions: buffer; pH 7.4; 200.0 µM

Row | Structure (SMILES) | solubility kinetic [µg/mL]
1 | N#C/C(=C\c1c(F)cccc1Cl)C(=O)NC1CC1 | > 39.7
2 | Cc1ccc(NC(=O)COC(=O)c2cccc(C)c2[N+](=O)[O-])cc1S(=O)(=O)N1CCCCC1 | 3.8 (≈ 7.99 µM)
3 | O=C(Nc1ccc(Cl)c(Cl)c1)c1ccccc1NC(=O)C1CC=CCC1C(=O)O (stereo unspecified) | > 65
4 | S=C(NCc1ccc(Cl)cc1)N1CCN(c2ccccn2)CC1 | < 0.2
5 | Cn1c(=O)c(C(=O)NCC2CCCO2)c(O)c2ccccc21 (stereo unspecified) | 15.2 (≈ 50.3 µM)
6 | CCCC(C)NC(=O)c1ccccc1SC (stereo unspecified) | 34.1 (≈ 144 µM)
7 | COc1ccc(OC)c(NC(=O)Cn2cc(C=O)c3ccccc32)c1 | 2.5 (≈ 7.39 µM)
8 | CN1CCN(C(=O)CSc2nc3c(c(=O)n(C)c(=O)n3C)n2C)CC1 | 48.1 (≈ 131 µM)
9 | O=C(Nc1ccccc1)Nc1cccc2ccccc12 | 0.3 (≈ 1.14 µM)
10 | COc1cc2c(cc1OC)CN(C(=O)c1ccco1)CC2 | > 43.1
11 | O=C(COc1ccc(-c2ccccc2)cc1)Nc1cccnc1 | 4.2 (≈ 13.8 µM)
12 | Cc1ccc(NC(=O)C(c2ccccc2)c2ccccc2)c(O)c1 | 2.1 (≈ 6.62 µM)
13 | Fc1ccc(Nc2nc(-c3ccncc3)cs2)cc1 | 0.8 (≈ 2.95 µM)
14 | O=C(NCCCN1CCOCC1)C1CC(=O)N(c2ccccc2)C1 (stereo unspecified) | > 49.7
15 | CCN1C(=O)CC(C(=O)OC)=C1C | 24.6 (≈ 134 µM)
16 | O=C(COC(=O)c1cnccn1)c1ccc(Cl)cc1 | 38.4 (≈ 139 µM)
17 | N/C(CS(=O)(=O)c1ccccn1)=N\OC(=O)c1ccc(Cl)cc1 | 19.1 (≈ 54 µM)
18 | COc1ccccc1CC(=O)Nc1sc2c(c1C(N)=O)CCCC2 | 2 (≈ 5.81 µM)
19 | CCN(C(=O)CCc1ccccc1)C1CCCCC1 | 26.8 (≈ 103 µM)
20 | COC(=O)c1ccc(N2C(=O)C3CC=CC(C)C3C2=O)cc1 (stereo unspecified) | 20 (≈ 66.8 µM)
21 | CCOC(=O)Nc1ccc2c(c1)nc1n2CCN(CCOC)C1 | > 47.8

Row | Structure (SMILES) | solubility kinetic [µg/mL]
22 | Cc1ccc2oc(=O)c(/C=C(\O)c3ccco3)nc2c1 | 31.7 (≈ 118 µM)
23 | COC(=O)c1cccc(NC(=O)CCNC(=O)c2ccco2)c1 | > 47.4
24 | C=CCNC(=O)COc1ccccc1C#N | > 32.4
25 | C/C(=N\O)c1c(O)cc(-c2ccccc2)n(-c2ccccc2)c1=O | > 48.1
26 | O=C(O)CSCC(=O)Nc1ccccn1 | > 33.9
27 | NC(=O)Cn1c(-c2nonc2N)nc2ccccc21 | > 38.7
28 | Cc1ccc(C(=O)COC(=O)c2cccc([N+](=O)[O-])c2)s1 | 7.1 (≈ 23.3 µM)
29 | CC(OC(=O)CN1C(=O)C2C3C=CC(C4CC34)C2C1=O)C(=O)c1ccccc1 (stereo unspecified) | > 56.9
30 | Cc1cc(NC(=O)CN2C(=O)NC(CCc3ccccc3)C2=O)no1 (stereo unspecified) | > 51.4
31 | CN(Cc1c(F)cccc1Cl)C(=O)CCc1c[nH]c2ccccc12 | 11.9 (≈ 34.5 µM)
32 | O=C(COC(=O)/C=C/c1cccc(C(F)(F)F)c1)NC(=O)NCc1ccco1 | 4.5 (≈ 11.4 µM)
33 | CCOC(=O)C1=C(COC(=O)COc2ccccc2C=O)NC(=O)NC1C (stereo unspecified) | > 56.5
34 | Cn1cccc1C(=O)Nc1ccc(Cl)c(S(=O)(=O)N2CCCCC2)c1 | 8.7 (≈ 22.8 µM)
35 | CCCN1CCCC(C(=O)c2cc(C)c(OC)c(C)c2)C1 (stereo unspecified) | 39 (≈ 135 µM)
36 | O=C(N/N=C/c1ccoc1)c1ccccc1F | > 34.8
37 | COC(=O)c1cc(Sc2cccc(Cl)c2Cl)ccn1 | 26.3 (≈ 83.7 µM)
38 | O=C(/C=C/c1ccccc1Cl)N1CCOCC1 | 36.6 (≈ 145 µM)
39 | CCC(=O)NC(=S)Nc1cccc(Cl)c1N1CCCC1 | 0.3 (≈ 0.962 µM)
40 | COc1ccc2c(=O)c(C(=O)NCc3ccccc3)c[nH]c2c1 | 2.3 (≈ 7.46 µM)
41 | CC(=O)C1=C(O)C(=O)N(Cc2ccccc2)C1c1ccc(Cl)cc1 (stereo unspecified) | > 51.3
42 | Cc1cc(Cl)ccc1NC(=O)CN1C(=O)NC2(CCCC2)C1=O | > 50.4

Row | Structure (SMILES) | solubility kinetic [µg/mL]
43 | Cc1nc(N)c(C#N)c(-c2ccc3c(c2)OCO3)c1C | 0.5 (≈ 1.87 µM)
44 | Cc1ccc(C(=O)Nc2ccc(N3CCOCC3)nc2N2CCOCC2)cc1 | 5.6 (≈ 14.6 µM)
45 | N=c1oc2ccccc2cc1C(=O)NCc1ccccc1 | 6.7 (≈ 24.1 µM)
46 | CC(=O)N[C@@H](Cc1c[nH]c2ccccc12)C(=O)NCc1ccccc1 | > 50.3
47 | CCOc1cc(C(=O)Nc2ccc(S(=O)(=O)Nc3onc(C)c3C)cc2)cc(OCC)c1OCC | > 75.5
48 | CCC(C(=O)Nc1cc(Cl)c(OC)cc1OC)c1ccccc1 (stereo unspecified) | < 0.7
49 | Cc1ccccc1C(=O)NCC(=O)N1CCN(c2ccccn2)CC1 | > 50.8
50 | CP(=O)(O)CN1CCCCC1 | 24.9 (≈ 141 µM)
51 | Cc1ccc(OC(C)C(=O)Nc2ccncc2)cc1 (stereo unspecified) | 31.7 (≈ 124 µM)
52 | O=c1[nH]c2ccccc2c2oc(CCl)nc12 | 12.5 (≈ 53.3 µM)
53 | O=C(Nc1ccc([N+](=O)[O-])c(NC(=O)c2cccnc2)c1)c1cccnc1 | 3.3 (≈ 9.08 µM)
54 | COc1ccc(NC(=O)c2ccccc2Oc2ccccc2)c(OC)c1 | < 0.7
55 | O=C(NCCc1ccccc1)C(=O)c1c[nH]c2ccccc12 | 0.4 (≈ 1.37 µM)
56 | CN(C(=O)/C=C/c1ccccc1)C1CCCCC1 | 35.1 (≈ 144 µM)
57 | COc1ccccc1NS(=O)(=O)c1cccc(C(=O)N2CCCC2)c1 | > 54.1
58 | Cl.OC(CN1CCOCC1)c1csc2ccccc12 (stereo unspecified) | 43.6
59 | Cc1cc(C)c2c(c1)C1(OCCO1)C(=O)N2 | 16.1 (≈ 73.4 µM)
60 | COc1ccc(-n2c(C)c(C)c3c(NCCCN(C)C)ncnc32)cc1 | > 53
61 | CCN(CC)C(=O)c1c(-c2ccccc2)oc2ccc(O)cc12 | 31.8 (≈ 103 µM)
